The text below walks through data of ChEMBL document CHEMBL1201862, “PubChem BioAssay data set” (2004).

Molecules are shown by their SMILES.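 Cultured in 96-well plates, cells were exposed to test compound for 48 hours across five concentrations. GI50 is the concentration that inhibits growth by half.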 The source made the active and inactive calls. Rule as the data show it: active = GI50 up to about 1.1 µM and inactive = higher.

Holding throughout (assay): NCI anticancer screen, dose series, 48 h
Test [1] deals with Malme-3M.
Test [2] concerns SK-MEL-5.
In test [3] the test system is NCI-H226.
Test [4] concerns Hs-578T.
The test system of test [5] is OVCAR-4.
In test [6] the test system is RXF 393.
Test [7] has as its system SR.
For test [8], the system named is A498.
Test [9] deals with SNB-75.
Test [10] deals with UACC-62.
For test [11], the system named is A549.
In test [12] the test system is U-251.
For test [13], the system named is 786-0.
The subject of test [14] is BT-549.
Test [15] concerns PC-3.
The test system of test [16] is SK-OV-3.
Test [17] has as its system K562.
The test system of test [18] is HCT-116.
Test [19] relates to EKVX.
Test [20] concerns HOP-92.

In the case of `COc1cccc2c1C1(O)C2CCCCCCCCCC12OCCCO2` (stereo not given), the GI50 in [1] was > 47 µM (inactive); in test [2], 21.6 µM (inactive); in [3], > 47.9 µM (inactive); in [4] it was > 100 µM (inactive); in [5] it was > 100 µM (inactive); in test [6] it was > 100 µM (inactive). Moreover, the GI50 in test [7] was 3 µM (inactive); in test [8], > 58.2 µM (inactive); in test [9], > 44.1 µM (inactive); in [10], > 100 µM (inactive); in [11] it was > 34.5 µM (inactive); in test [12], 8.63 µM (inactive). The GI50 in test [13] was 32.7 µM (inactive); in [14] it was 92 µM (inactive); in test [15], 6.44 µM (inactive); in [16], > 45.3 µM (inactive); in test [17] it was 6.19 µM (inactive); in [18] it was 6.81 µM (inactive).

As for `O=C1c2ccccc2C(=O)c2c(NCC(O)CO)ccc(NCC(O)CO)c21` (stereo not given), the GI50 was 91.2 µM (inactive) in test [1]; 33.7 µM (inactive) in test [2]; 51.4 µM (inactive) in test [3]; 68.7 µM (inactive) in [4]; > 100 µM (inactive) in test [5]; 61.4 µM (inactive) in test [7]. Further, the GI50 is > 100 µM (inactive) in test [8]; 56.4 µM (inactive) in test [9]; 51.5 µM (inactive) in [10]; > 100 µM (inactive) in [11]; 61.2 µM (inactive) in test [12]; 69.7 µM (inactive) in test [13]. Further, the GI50 in test [14] was 75.7 µM (inactive); in test [19], > 100 µM (inactive); in test [15], 78 µM (inactive); in test [16], 40.9 µM (inactive); in test [17], 35.2 µM (inactive); in [18], 67 µM (inactive).

`Cc1cn2c(/C=C3/C(=O)Nc4ccccc43)c(C)nc2s1`: the GI50 in [1] is 2.61 µM (inactive); in test [2] it was 0.516 µM (active); in [4], 1.99 µM (inactive); in [6], 2.6 µM (inactive); in test [7] it was 0.507 µM (active); in [8] it was 1.33 µM (inactive). The GI50 in [9] is 3.79 µM (inactive); in test [10] it was 1.33 µM (inactive); in test [11], 2.02 µM (inactive); in test [12], 2.24 µM (inactive); in test [13], 3.82 µM (inactive); in test [14] it was 3.95 µM (inactive). The GI50 is 6.11 µM (inactive) in test [19]; 1.3 µM (inactive) in test [15]; 14.4 µM (inactive) in test [20]; 3.15 µM (inactive) in test [16]; 0.431 µM (active) in test [17]; 0.867 µM (active) in test [18].

Regarding `Clc1ccc(-c2cc(-c3nc4ccccc4[nH]3)no2)cc1`, the GI50 in test [1] is 19.3 µM (inactive); in [2] it was 17.7 µM (inactive); in test [3], 27.4 µM (inactive); in test [4], 29.6 µM (inactive); in test [5], 17.7 µM (inactive); in test [7] it was 21.4 µM (inactive). In addition, the GI50 in [8] was 18.9 µM (inactive); in test [9] it was 18.3 µM (inactive); in test [10] it was 14.6 µM (inactive); in test [11], 19.1 µM (inactive); in test [13], 24.3 µM (inactive); in test [14], 21.6 µM (inactive). Besides, the GI50 in test [19] was 16.9 µM (inactive); in test [15], 23.3 µM (inactive); in test [20] it was 33.7 µM (inactive); in test [16] it was 18.6 µM (inactive); in [17], 19.8 µM (inactive); in test [18], 16.6 µM (inactive).

As to `CC(=O)N(CCc1ccccc1)C(C#N)c1ccccc1` (stereo not given), the GI50 in test [1], in [2], in test [3], in test [4], in test [5] and in test [6] was > 100 µM (inactive) in each case. For the same molecule, the GI50 in [7] is > 100 µM (inactive); in [8], 91.2 µM (inactive); in test [9], 10.5 µM (inactive); in test [10], > 100 µM (inactive); in [11], > 100 µM (inactive); in test [12], > 100 µM (inactive). The GI50 in test [13], in test [14], in test [19], in [15], in test [16] and in [17] was > 100 µM (inactive) each time. The GI50 in test [18] is > 100 µM (inactive).

For the molecule `CC(C)(C)C1CCC(=O)/C(=C/CC2CC(=O)N(c3ccccc3)C(=O)C2)C1` (stereo not given), the GI50 in test [1] is 18.6 µM (inactive); in [2], 16.4 µM (inactive); in test [3], 16.1 µM (inactive); in [4], 33.1 µM (inactive); in test [5] it was 32.7 µM (inactive); in test [7], 10.3 µM (inactive). For the same molecule, the GI50 is 24.5 µM (inactive) in [8]; 21.9 µM (inactive) in [9]; 14.5 µM (inactive) in test [10]; 14.9 µM (inactive) in [12]; 19.8 µM (inactive) in test [13]; 20.4 µM (inactive) in test [14]. The GI50 in test [19] is 26 µM (inactive); in test [15] it was 27.5 µM (inactive); in [17] it was 19.5 µM (inactive); in test [18] it was 14.8 µM (inactive).

Consider `C=CCN1C[C@@H](C)N([C@@H](c2ccccc2)c2ccc(C(=O)N(CC)CC)cc2)C[C@@H]1C`, for which the GI50 was > 100 µM (inactive) in test [1]; > 100 µM (inactive) in [2]; 81.7 µM (inactive) in test [3]; > 100 µM (inactive) in test [4]; > 100 µM (inactive) in test [5]; > 100 µM (inactive) in [7]. For the same molecule, the GI50 in test [8], in test [10], in test [11], in [12], in test [13] and in test [14] was > 100 µM (inactive) in each case. Also, the GI50 in test [19] was > 100 µM (inactive); in [15], > 100 µM (inactive); in [20] it was 8.43 µM (inactive); in [16], > 100 µM (inactive); in test [18], > 100 µM (inactive).

`Cc1cc(N(CCC#N)CCC#N)ccc1C(/N=N/c1ccc([N+](=O)[O-])cc1)=N\NC(=O)c1ccccc1`: the GI50 was 56.9 µM (inactive) in [1]; 26.4 µM (inactive) in test [2]; 39.1 µM (inactive) in [3]; 25.1 µM (inactive) in test [4]; 61 µM (inactive) in test [5]; 52.2 µM (inactive) in [6]. For the same molecule, the GI50 in test [7] was 14.2 µM (inactive); in test [8] it was 25.9 µM (inactive); in test [9], 48.4 µM (inactive); in [10], 31 µM (inactive); in [11], 57.1 µM (inactive); in test [12], 42.3 µM (inactive). The GI50 in test [13] was 47.9 µM (inactive); in test [14] it was 37.5 µM (inactive); in test [19], 63.4 µM (inactive); in test [15], 41.2 µM (inactive); in test [16], 49.5 µM (inactive); in [17] it was 22.9 µM (inactive). Also, in test [18], the GI50 was 31.8 µM (inactive).

Turning to `O=C(/C=C/c1ccccc1)C[C@@H](O)C[C@@H]1CC=CC(=O)O1`, the GI50 in [1] is 14.2 µM (inactive); in test [2], 12.4 µM (inactive); in test [3], > 100 µM (inactive); in test [4], > 33.4 µM (inactive); in test [5], 15.2 µM (inactive); in test [7] it was 2.84 µM (inactive). The GI50 in test [8] was 16.7 µM (inactive); in [9] it was 16.7 µM (inactive); in test [10] it was 8.97 µM (inactive); in [11] it was 18.7 µM (inactive); in test [12], 8.69 µM (inactive); in test [13] it was 3.34 µM (inactive). Moreover, the GI50 in test [14] is 11.4 µM (inactive); in test [19] it was 17.1 µM (inactive); in test [15], 16.3 µM (inactive); in [20] it was 3.88 µM (inactive); in test [16], 14.3 µM (inactive); in test [17], 2.33 µM (inactive). Besides, the GI50 in test [18] was 2.46 µM (inactive).

In the case of `CC1OC(OC2C(CO)OC(O[C@H]3CC[C@@]4(C)C(=CC[C@H]5[C@@H]6C[C@@H]7O[C@](O)(CC[C@@H](C)COC8OC(CO)C(O)C(O)C8O)[C@@H](C)[C@@H]7[C@@]6(C)CC[C@@H]54)C3)C(OC3OC(C)C(O)C(O)C3O)C2O)C(O)C(O)C1O` (stereo not given in full), the GI50 in test [1] was 1.89 µM (inactive); in test [2], 4.21 µM (inactive); in test [4], 33.1 µM (inactive); in test [5], 6.73 µM (inactive); in test [6] it was 2.4 µM (inactive); in test [7], 3.23 µM (inactive). In addition, the GI50 in test [8] is > 100 µM (inactive); in [9], 1.48 µM (inactive); in [10], 2.52 µM (inactive); in [11], 1.57 µM (inactive); in test [12], 1.87 µM (inactive); in [13] it was 2.07 µM (inactive). Also, the GI50 in [14] is 3.88 µM (inactive); in test [19] it was 9.38 µM (inactive); in [15], 2.41 µM (inactive); in test [16], 2.84 µM (inactive); in test [17] it was 5.07 µM (inactive); in test [18], 2.08 µM (inactive).
